This experiment relates to PBMCs from HCMV seropositive subjects. Nature of the experiment: ex vivo IFN-γ Fluorospot assay. The settings on record: 19 HCMV seropositive subjects, individual peptide 10 ug/ml, 20 hr; for No. of subjects responding: IFN-γ; for Magnitude of response: IFN-γ spots (FIG. 1: SFC/10^6 PBMC; no unit in table). It counts as cell-based, human. As for the experimental part:
To define the targets of HCMV-specific T cell epitopes recognized in healthy adults, the inventors screened PBMCs of 19 subjects, 10 males and 9 females, recruited from San Diego blood bank (SDBB). The HCMV seropositivity of all the subjects was confirmed by IgG ELISA (FIG. 6A). A total of 2593 HCMV peptides covering a total of 563 ORFs (1) were tested. However, as many of these predicted ORFs overlapped 100% with others, as they were internal to longer ORFs, these 563 contained 359 completely unique ORFs composed of ˜150“canonical” ORFs, and an additional ˜200 identified by ribosomal RNA profiling (1). These peptides corresponded to predicted dominant epitopes, based on a bioinformatic method that predicts promiscuous binding to HLA class II molecules (40). Each of the ORFs above was covered by multiple predicted epitopes (with a minimum of at least 2), with the exception of very small ORFs (less than 15-20 amino acid residues), in which case at least one peptide was synthetized. The 2593 peptides were arranged in 89 pools of 28-30 15-mer peptides. PBMC reactivity of each of the 89 pools was assayed directly ex vivo using an IFN-γ Fluorospot assay.
For the initial CMV ORF screen, the responses of 19 CMV-seropositive subjects were evaluated. PBMCs were stimulated with 89 pools covering 563 ORFs of HCMV. Each pool comprised of 28-30 15-mer peptides overlapping by 10 residues. PBMCs that were found reactive to a pool were further tested against individual peptides contained in the pool using IFN-γ Fluorospot assay.
PBMC were thawed, washed and counted for viability using the trypan blue exclusion method. 200,000 cells were plated in triplicates and stimulated with pools (2 ug/ml) or peptides (10 ug/ml), PHA (10 ug/ml) or medium containing equivalent amount of DMSO in 96-well plates (Immubilion-P, Millipore) previously coated with anti IFN-γ antibody (1-DIK, Mabtech, Stockholm, Sweden). After 20 hr incubation at 37° C., cells were discarded and wells were washed six times with PBS/0.05% Tween 20 using an automated plate washer and further incubated with IFN-γ antibody (7-B6-1-FS-BAM) for 2 hrs at room temperature. After incubation, wells were washed and incubated with fluorophore conjugated anti-BAM-490 antibody for 1 hr at room temperature. Finally, the plates were washed and incubated with fluorescence enhancer for 15 min, blotted dry and fluorescent spots were counted by computer assisted image analysis (IRIS Fluorospot reader, Mabtech, Sweden).
Each pool or peptide was considered positive compared to the background that had equivalent amount of DMSO based on the following criteria: (i) 20 or more spot forming cells (SFC) per 10^6 PBMC after background subtraction, (ii) the stimulation index greater than 2, and (iii) p<0.05 by student's t test or Poisson distribution test

Where no end group is shown, it is not given here.

On to “135 (KTQIFNKLFTNRISV; ends and bridges not checked) [compound 135]”, for which the “No. of subjects responding” value is on record as 1 and the Magnitude of response came to 1587.
For “136 (VRSLAVDAQHAAKRV; ends and bridges not checked) [compound 136]” the same measures were 1 and 53.
For 137 (LEERDEWVRSLAVDA) [compound 137] the same measures were 1 and 47.
Take 138 (AAITVVPVITQSRLA) [compound 138]: the “No. of subjects responding” value is recorded as 3 and the Magnitude of response was 450.
Regarding 139 (PWYPITQARTLELTP) [compound 139], the “No. of subjects responding” value is listed as 2 and the Magnitude of response amounted to 996.
For 140 (MSTKRSTVPWYPITQ) [compound 140], the “No. of subjects responding” value came out at 3 and the Magnitude of response is 477.
In the same order, the values of 141 (LRVTFHRVKPTLQRE) [compound 141] are 2 and 830.
Take 142 (SGRVILWTTLRLCIL) [compound 142]: the “No. of subjects responding” value is given as 1 and the Magnitude of response was determined as 20.
In the same order, the values of 143 (VVRKYWTFTNPNRIL) [compound 143] are 3 and 16876.
For 144 (TFDVRQFVFDNARLV) [compound 144] the same measures were 6 and 13736.
For 145 (VRGGIVENKSVSSVV) [compound 145] the same measures were 5 and 2691.
In the case of 146 (GNLQVTYVRHYLKNH) [compound 146], the “No. of subjects responding” value is on record as 4 and the Magnitude of response is 655.
In the same order, the values of 147 (AVAFLNYSSSSSAVS) [compound 147] are 3 and 2151.
In the same order, the values of 148 (AGLMMMRRMRRAPAE) [compound 148] are 1 and 490.
In the same order, the values of 149 (CDLPLVSSRLLPETS) [compound 149] are 1 and 123.
Regarding 150 (CEIKPYVVNPVVATA) [compound 150], the “No. of subjects responding” value is recorded as 3 and the Magnitude of response came to 2583.
In the same order, the values of 151 (DPLLRLSQVAGSGRR) [compound 151] are 2 and 2067.
As for 152 (LPLCSTARLRLAPRR) [compound 152], the “No. of subjects responding” value was 1 and the Magnitude of response worked out at 467.
Turning to 153 (RATGNFRSTSLYAAV) [compound 153], the “No. of subjects responding” value is recorded as 3 and the Magnitude of response is 4220.
For 154 (RCCTLRFRRRCRARC) [compound 154], the “No. of subjects responding” value stood at 2 and the Magnitude of response worked out at 713.
In the case of 155 (MSATRHHRCCTLRFR) [compound 155], the “No. of subjects responding” value is 1 and the Magnitude of response is given as 277.
Consider 156 (RVFCLSADWIRFLSL) [compound 156], for which the “No. of subjects responding” value was found to be 2 and the Magnitude of response was determined as 846.
Consider 157 (HLGWQTLSNHVIRRL) [compound 157], for which the “No. of subjects responding” value was 1 and the Magnitude of response is listed as 127.
In the case of 159 (SCTHPYVISLVTPLT) [compound 159], the “No. of subjects responding” value is 1 and the Magnitude of response is on record as 80.
For 160 (ISLVTPLTINATLRL) [compound 160] the same measures were 1 and 317.
In the same order, the values of 161 (CRVDADLGLLYAVCL) [compound 161] are 1 and 673.
For 162 (VCLILSFSIVTAALW) [compound 162] the same measures were 1 and 43.
As for 163 (MFFLAIRDHDTAGGI) [compound 163], the “No. of subjects responding” value stood at 1 and the Magnitude of response came to 1637.
With 164 (LQTMLRKEVNSQLSL) [compound 164], the “No. of subjects responding” value came out at 2 and the Magnitude of response was 1606.
For 165 (LVKQIKVRVDMVRHR) [compound 165], the “No. of subjects responding” value is given as 3 and the Magnitude of response is recorded as 580.
For 166 (RVDMVRHRIKEHMLK) [compound 166] the same measures were 2 and 250.
Take 167 (LRRKMMYMCYRNIEF) [compound 167]: the “No. of subjects responding” value worked out at 6 and the Magnitude of response is given as 1697.
In the same order, the values of 168 (CSPDEIMSYAQKIFK) [compound 168] are 2 and 194.
With 169 (EERDKVLTHIDHIFM) [compound 169], the “No. of subjects responding” value was 2 and the Magnitude of response stood at 107.
In the same order, the values of 170 (VLCCYVLEETSVMLA) [compound 170] are 1 and 93.
On to 171 (ITKPEVISVMKRRIE) [compound 171], for which the “No. of subjects responding” value stood at 1 and the Magnitude of response is recorded as 1600.
For 172 (FAQYILGADPLRVCS) [compound 172] the same measures were 1 and 30.
For the substance 173 (EAIVAYTLATAGASS) [compound 173], the “No. of subjects responding” value is 3 and the Magnitude of response is on record as 19333.
In the same order, the values of 177 (STPFLMEHTMPVTHP) [compound 177] are 4 and 740.
In the same order, the values of 178 (YRNMIIHAATPVDLL) [compound 178] are 2 and 130.
In the same order, the values of 179 (VMVRIFSTNQGGFML) [compound 179] are 2 and 3560.
As for 180 (VVVGIVLCLSLASTV) [compound 180], the “No. of subjects responding” value was 1 and the Magnitude of response worked out at 1417.
Turning to 181 (SPVAAELPHPSPAPM) [compound 181], the “No. of subjects responding” value is 2 and the Magnitude of response is given as 166.
For 182 (SYLAVHLRISHRYYH) [compound 182], the “No. of subjects responding” value was 1 and the Magnitude of response was 290.
In the same order, the values of 183 (IAITMVMRFWQYING) [compound 183] are 3 and 163.
For 187 (LHRRAAVSGRRSLLQ) [compound 187] the same measures were 1 and 87.
For 188 (MLRLLFTLVLLALYG) [compound 188] the same measures were 3 and 4593.
Turning to 189 (HVRLLSYRGDPLVFK) [compound 189], the “No. of subjects responding” value is recorded as 3 and the Magnitude of response is 333.
For 190 (VVRFALYLETLSRIV) [compound 190] the same measures were 2 and 123.
In the same order, the values of 191 (FYMNWTLRRSQTHYL) [compound 191] are 6 and 16883.
Take 192 (QVEILKPRGVRHRAI) [compound 192]: the “No. of subjects responding” value was 9 and the Magnitude of response came out at 3468.
In the same order, the values of 193 (FCVYRYNARLTRGYV) [compound 193] are 3 and 700.
194 (TRGYVRYTLSPKARL) [compound 194]: the “No. of subjects responding” value turned out to be 7 and the Magnitude of response was found to be 9337.
For 195 (SLDRFIVQYLNTLLI) [compound 195] the same measures were 8 and 23368.

The record behind these values is patent US20250332249A1, “CYTOM[…] CELL EPITOPES AND USES THEREOF” (LA JOLLA INSTITUTE FOR IMMUNOLOGY, priority 2021, published 2025).
